This is an account of results in US20260364184A1, “COMPOUND BASED ON OXOISOINDOLINYL-SUBSTITUTED TETRAHYDROPYRIMIDINE-DIONE AND USE THEREOF” (GLUETACS THERAPEUTICS (SHANGHAI) CO., LTD., priority 2023, published 2026).

Molecules are shown by their SMILES. Like-named read-outs stand apart in the source and are kept apart here.

Assay type in all cases: cell-based
The test system of assay [1] is Human acute lymphocytic leukemia T lymphocytes cell line (CCRF-CEM). In words: Inhibition of CCRF-CEM cell proliferation (CellTiter luminescent viability). Particulars: Homo sapiens, 96 h; for inhibition at 0.01 µM: 10 nM, read-out: Inhibition Rate at 10 nM (%); for inhibition at 0.5 µM: 500 nM, read-out: Inhibition Rate at 500 nM (%). As for the experimental part:
(§1) The tumor cells used herein were cultured in a cell culture medium listed in table 3 at 37 °C in an incubator with 5% CO2. Prior to experimentation, all cell lines used were correctly identified by STR profiling, and tested negative for mycoplasma contamination using a mycoplasma detection kit through routine screenings.
(§2) The IC50 values of the compounds of the present disclosure (including the compounds in Table 1, Table 2, and Examples 1-468) were determined using the CellTiter-Meiluncell Luminescent Cell Viability Assay Kit from Dalian Meilun Biotech Co., Ltd. The detailed procedure is as follows: Tumor cells were seeded in 96-well cell culture plates at the densities specified in Table 4. On the following day, the test compounds of the present disclosure were subjected to serial dilution. The dilution can be performed according to one of the following two methods: • (1) The first dilution method: The test compounds of the present disclosure (including the compounds in Table 1, Table 2, and Examples 1-468) were subjected to 5-fold serial dilutions starting from a highest concentration of 2000 μM, resulting in a total of 9 concentrations from high to low (2000, 400, 80, 16, 3.2, 0.64, 0.128, 0.0256, 0.00512 μM). Subsequently, 0.5 μL of the test compound dilution was transferred into the 96-well plate containing the cells, with each well containing 100 μL of cell culture medium. […] Into the 96-well plate, the diluted test compounds and corresponding detection reagents were added, resulting in final test compound concentrations of 500 nM and 10 nM, respectively. The experimental procedure is described below using the diluted 2 μM test compound as an example.
(§3) 0.5 μL of the aforementioned diluted compound of the present disclosure (including the compounds in Table 1, Table 2, and Examples 1-468) was added to the seeded cells in 100 μL of medium, yielding a final test compound concentration of 10 nM. After the cells were treated with the compounds of the present disclosure for a specified period, the cell viability assay reagent was added to the culture medium according to the kit's instructions to determine cell viability. […] All controls were treated using the same procedure as the compounds of the present disclosure. The growth inhibition curves for the compounds of the present disclosure were plotted using Prism GraphPad software, and the IC50 values were calculated therefrom.

The test system of assay [2] is Human Multiple myeloma cell line (MM.1S). In words: Inhibition of MM.1S cell proliferation (CellTiter luminescent viability). The note with it: Homo sapiens, MM1.S, 96 hours; for inhibition at 0.01 µM: 10 nM, read-out: Inhibition Rate at 10 nM (%); for inhibition at 0.5 µM: 500 nM, read-out: Inhibition Rate at 500 nM (%). As to the method: as §1, §2, §3
Assay [3] concerns Human myeloid monocytic leukemia cell line (MV-4-11). In words: Inhibition of MV-4-11 cell proliferation (CellTiter luminescent viability). Particulars: Homo sapiens, MV4-11; for inhibition at 0.01 µM: read-out: Inhibition Rate at 10 nM (%); for inhibition at 0.5 µM: read-out: Inhibition Rate at 500 nM (%). As to the method: as §1, §2, §3
Setting [4] is: Table IL3, BCR-ABL inhibitor-based.
The mark [5] stands for this setting: Table IL1, BCR-ABL inhibitor-based.
The mark [6] stands for this setting: Table IJ2, Tau inhibitor-based, MV-4-11, 10 nM, 96 hours.
The mark [7] stands for this setting: Table IJ2, Tau inhibitor-based, MV-4-11, 500 nM, 96 hours.

As to `N#Cc1ccc(O[C@H]2CC[C@H](NC(=O)c3ccc(N4CCC(CN5CCN(c6cc(F)c7c(c6)C(=O)N(N6CCC(=O)NC6=O)C7=O)CC5)CC4)nn3)CC2)cc1Cl` [GT-05233, N-((1r,4r)-4-(3-chloro-4-cyanophenoxy)cyclohexyl)-6-(4-((4-(2-(2,4-dioxotetrahydropyrimidin-1(2H)-yl)-7-fluoro-1,3-dioxoisoindolin-5-yl)piperazin-1-yl)methyl)piperidin-1-yl)pyridazine-3-carboxamide], in assay [1] (Table IF2, AR inhibitor-based), the inhibition (commonly the relative decrease from the control value, in per cent) at 0.01 µM was in the range of 15 to 20% and the inhibition at 0.5 µM lay within 20 to 30%.

Take `CNC(=O)c1ccccc1Nc1cc(Nc2cc(C)c(C3CCN(Cc4ccc5c(c4)CN(N4CCC(=O)NC4=O)C5=O)CC3)cc2OC(C)C)ncc1C(F)(F)F` [GT-07663, 2-((2-((4-(1-((2-(2,4-dioxotetrahydropyrimidin-1(2H)-yl)-1-oxoisoindolin-5-yl)methyl)piperidin-4-yl)-2-isopropoxy-5-methylphenyl)amino)-5-(trifluoromethyl)pyridin-4-yl)amino)-N-methylbenzamide]: in assay [2] (Table IG1, FAK inhibitor-based), the inhibition at 0.01 µM was 5 to 10% and the inhibition at 0.5 µM lay within 40 to 60%.

As for `CNC(=O)c1ccccc1Nc1cc(Nc2cc(C)c(C3CCN(Cc4ccc5c(c4)C(=O)N(N4CCC(=O)NC4=O)C5=O)CC3)cc2OC(C)C)ncc1C(F)(F)F` [GT-07664, 2-((2-((4-(1-((2-(2,4-dioxotetrahydropyrimidin-1(2H)-yl)-1,3-dioxoisoindolin-5-yl)methyl)piperidin-4-yl)-2-isopropoxy-5-methylphenyl)amino)-5-(trifluoromethyl)pyridin-4-yl)amino)-N-methylbenzamide], in assay [2] (Table IG1, FAK inhibitor-based), the inhibition at 0.01 µM is 20 to 30% and the inhibition at 0.5 µM fell in the range of 40 to 60%.

On to `O=C1CCN(N2C(=O)c3ccc(CN4CCC(N5CCN(c6ncc(C(=O)Nc7ccc(OC(F)(F)Cl)cc7)cc6-c6cc[nH]n6)CC5)CC4)cc3C2=O)C(=O)N1` [GT-08225, N-(4-(chlorodifluoromethoxy)phenyl)-6-(4-(1-((2-(2,4-dioxotetrahydropyrimidin-1(2H)-yl)-1,3-dioxoisoindolin-5-yl)methyl)piperidin-4-yl)piperazin-1-yl)-5-(1H-pyrazol-3-yl)nicotinamide], for which, in assay [1] (setting [4]), the inhibition at 0.01 µM fell in the range of 10 to 15% and the inhibition at 0.5 µM was 30 to 40%.

`O=C1CCN(N2C(=O)c3ccc(CN4CCN(C5CCN(c6ncc(C(=O)Nc7ccc(OC(F)(F)Cl)cc7)cc6-c6cc[nH]n6)CC5)CC4)cc3C2=O)C(=O)N1` [GT-08227, N-(4-(chlorodifluoromethoxy)phenyl)-6-(4-(4-((2-(2,4-dioxotetrahydropyrimidin-1(2H)-yl)-1,3-dioxoisoindolin-5-yl)methyl)piperazin-1-yl)piperidin-1-yl)-5-(1H-pyrazol-3-yl)nicotinamide]: in assay [2] (setting [5]), the inhibition at 0.01 µM was 20 to 30% and the inhibition at 0.5 µM is 20 to 30%.

Take `CN(c1cccc(CNc2nc(Nc3ccc(N4CCN(CC5CCN(c6ccc7c(c6)C(=O)N(N6CCC(=O)NC6=O)C7=O)CC5)CC4)cc3)ncc2C(F)(F)F)c1)S(C)(=O)=O` [GT-08246, N-(3-(((2-((4-(4-((1-(2-(2,4-dioxotetrahydropyrimidin-1(2H)-yl)-1,3-dioxoisoindolin-5-yl)piperidin-4-yl)methyl)piperazin-1-yl)phenyl)amino)-5-(trifluoromethyl)pyrimidin-4-yl)amino)methyl)phenyl)-N-methylmethanesulfonamide]: in assay [2] (Table IG1, FAK inhibitor-based), the inhibition at 0.01 µM fell in the range of 30 to 40% and the inhibition at 0.5 µM fell in the range of 30 to 40%.

As for `C[C@@H]1CNC(=O)c2cc3ccc(C(=O)Nc4cnn(Cc5ccc(N6CCN(CC7CCN(c8cccc9c8C(=O)N(N8CCC(=O)NC8=O)C9=O)CC7)CC6)cc5)c4)nc3n21` [GT-08256, (R)—N-(1-(4-(4-((1-(2-(2,4-dioxotetrahydropyrimidin-1(2H)-yl)-1,3-dioxoisoindolin-4-yl)piperidin-4-yl)methyl)piperazin-1-yl)benzyl)-1H-pyrazol-4-yl)-9-methyl-6-oxo-6,7,8,9-tetrahydropyrido[3′,2′: 4,5]pyrrolo[1,2-a]pyrazine-2-carboxamide], the inhibition at 0.01 µM in assay [3] (MV-4-11, 10 nM) fell in the range of 20 to 30%. Also, the inhibition at 0.5 µM in assay [3] (MV-4-11, 500 nM) was 80 to 100%.

In the case of `Cc1ccc(C(=O)Nc2ccc(CN3CCN(CC4CCN(c5cccc6c5C(=O)N(N5CCC(=O)NC5=O)C6=O)CC4)CC3)c(C(F)(F)F)c2)cc1C#Cc1cnc2cccnn12` [GT-08353, N-(4-((4-((1-(2-(2,4-dioxotetrahydropyrimidin-1(2H)-yl)-1,3-dioxoisoindolin-4-yl)piperidin-4-yl)methyl)piperazin-1-yl)methyl)-3-(trifluoromethyl)phenyl)-3-(imidazo[1,2-b]pyridazin-3-ylethynyl)-4-methylbenzamide], in assay [3] (Table IL2, BCR-ABL inhibitor-based, MV-4-11, 10 nM, 96 hours), the inhibition at 0.01 µM fell in the range of 50 to 60%. Besides, the inhibition at 0.5 µM in assay [3] (Table IL2, BCR-ABL inhibitor-based, MV-4-11, 500 nM, 96 hours) was in the range of 80 to 100%.

As for `Cc1ccc(C(=O)Nc2ccc(N3CCN(CC4CCN(c5ccc6c(c5)C(=O)N(N5CCC(=O)NC5=O)C6=O)CC4)CC3)c(C(F)(F)F)c2)cc1C#Cc1cnc2cccnn12` [GT-08354, N-(4-(4-((1-(2-(2,4-dioxotetrahydropyrimidin-1(2H)-yl)-1,3-dioxoisoindolin-5-yl)piperidin-4-yl)methyl)piperazin-1-yl)-3-(trifluoromethyl)phenyl)-3-(imidazo[1,2-b]pyridazin-3-ylethynyl)-4-methylbenzamide], in assay [2] (setting [5]), the inhibition at 0.01 µM is 15 to 20% and the inhibition at 0.5 µM is 20 to 30%.

Turning to `O=C1CCN(N2C(=O)c3ccc(CN4CCN(c5ccc(-c6ccc7c8cnccc8n(CC(F)(F)F)c7c6)cn5)CC4)cc3C2=O)C(=O)N1` [GT-08544, 2-(2,4-dioxotetrahydropyrimidin-1(2H)-yl)-5-((4-(5-(5-(2,2,2-trifluoroethyl)-5H-pyrido[4,3-b]indol-7-yl)pyridin-2-yl)piperazin-1-yl)methyl)isoindoline-1,3-dione], in assay [2] (Table IJ1, Tau inhibitor-based), the inhibition at 0.01 µM lay in the range of 30 to 40% and the inhibition at 0.5 µM was in the range of 40 to 50%.

On to `Cc1cc(-c2ccc3c4cnccc4n(C)c3c2)cnc1N1CCN(CC2CCN(c3ccc4c(c3)C(=O)N(N3CCC(=O)NC3=O)C4=O)CC2)CC1` [GT-08555, 2-(2,4-dioxotetrahydropyrimidin-1(2H)-yl)-5-(4-((4-(3-methyl-5-(5-methyl-5H-pyrido[4,3-b]indol-7-yl)pyridin-2-yl)piperazin-1-yl)methyl)piperidin-1-yl)isoindoline-1,3-dione], for which the inhibition at 0.01 µM in assay [2] (Table IJ1, Tau inhibitor-based) lay within 30 to 40%; in assay [3] (setting [6]) it was 30 to 40%. For the same compound, the inhibition at 0.5 µM in assay [2] (Table IJ1, Tau inhibitor-based) is 60 to 70%; in assay [3] (setting [7]) it was 70 to 80%.

Take `Cn1c2ccncc2c2ccc(-c3cnc(N4CCN(CC5CCN(c6cccc7c6C(=O)N(N6CCC(=O)NC6=O)C7=O)CC5)CC4)c(C(F)(F)F)c3)cc21` [GT-08561, 2-(2,4-dioxotetrahydropyrimidin-1(2H)-yl)-4-(4-((4-(5-(5-methyl-5H-pyrido[4,3-b]indol-7-yl)-3-(trifluoromethyl)pyridin-2-yl)piperazin-1-yl)methyl)piperidin-1-yl)isoindoline-1,3-dione]: the inhibition at 0.01 µM in assay [3] (setting [6]) fell in the range of 0 to 5%. In assay [3] (setting [7]), the inhibition at 0.5 µM lay in the range of 50 to 60%.
